Measured values as given in patent US20130216482A1, “METHODS AND COMPOSITIONS FOR NON-INVASIVE, DYNAMIC IMAGING OF INTESTINAL MOTILITY” (The Board of Regents of the University of Texas System, priority 2012, published 2013).

Assay: In vivo dynamic NIR fluorescence imaging of ICG distribution, clearance and GI transit
Set-up: species or system mice
Method: Mice were chosen because part of the study involved opening the peritoneal cavity and removing organs to provide detailed information about the method and its abilities. Therefore, the subjects of the study were Female C57BL6 mice (4-6 wk old; Charles River, Wilmington, Mass., USA) that were housed and maintained in a pathogen-free mouse facility accredited by the American Association for Laboratory Animal Care. All studies were performed in accordance with the guidelines of the Institutional Animal Care and Use Committee. Animal experiments were approved by University of Texas Health Science Center Institutional Animal Care and Usage Committee in accordance with NIH guidelines.
In order to carry out in vivo dynamic NIR imaging of GI Motility, the mice were anesthetized with isofluorane and maintained at 37° C. on a warming pad. A volume of 10 μl and 50 ul of 645 μM of IC-Green (Akorn, Inc. Buffalo Grove, Ill., USA) dissolved in mixture of distilled water and 0.9% Sodium Chloride in a volume ratio of 1:9 was injected intradermally and intravenously, respectively.
For intravenous injection of ICG, a catheter was placed in the tail vein of anesthetized mice to facilitate the subsequent delivery of the fluorescent dye. Dynamic fluorescence images were acquired for a period of approximately 6 min immediately before and up to 24 hrs after intravenous injection using a custom-built NIR fluorescence imaging system, the basics of which are presented in FIG. 6 and has been described elsewhere (for example U.S. Pat. Nos. 8,084,753; 7,875,260; 7,865,230; 7,599,732; 7,328,059; 7,268,873; 7,187,441; 7,054,002; 6,930,777; 6,771,370; 5,818,583; 5,865,754 and Kwon and Sevick-Muraca, Lymphat Res Biol 5, 219-231, 2007; Kwon and Sevick-Muraca, J Immunol Methods 360, 167-172, 2010). Anesthetized mice were uniformly illuminated by 785 nm light from a laser diode and the emitted fluorescence was collected using an Electron Multiplying Charge Coupled Device (EMCCD) camera with a holographic filter and a bandpass filter placed prior to a 28 mm lens. Image acquisition with the camera exposure time of 100 ms for fluorescence and white light imaging was accomplished by V++ software. The abdominal skin temperature was monitored for temperature changes during dynamic fluorescence imaging using an infrared thermometer but no temperature changes were observed. Because it was possible that the non-invasive imaging of the intestines may not distinguish the GI lumen from blood and lymphatic vessels, necropsy of the mouse with exposure of the abdomen was performed at 1 hr post injection (p.i.) and the GI tract was removed and laid out on a black paper for intravital imaging.
The data obtained were analyzed with a custom Matlab (The MathWorks, Inc., Natick, Mass., USA) program and ImageJ (National Institutes of Health, Bethesda, Md., USA). Fixed regions of interest (ROIs) from equivalent areas were selected along the length of the fluorescent intestine. An average fluorescent intensity within each ROI was plotted as a function of imaging time and/or length of the intestine. A three-dimensional plot of fluorescent intensity as a function of time and distance was generated and used as a spatio-temporal map to assess the propagation velocity and the frequency of the propagation along the intestine. No corrections were made for respiratory movements in the construction of the three-dimensional spatio-temporal maps. The packet of fluorescent contents is represented by the peak in fluorescence intensity which propagates along the intestine with time. Two ROIs were identified, from which the distance and time information was extracted to measure the propagation velocity. In this study, peristalsis was defined as aboral propagation of contraction waves along the intestine.

[1] = 1 hr post injection, abdomen exposed (FIG. 4: intravenous)

SMILES: CC1(C)C(/C=C/C=C/C=C/C=C2\N(CCCCS(=O)(=O)O)c3ccc4ccccc4c3C2(C)C)=[N+](CCCCS(=O)(=O)[O-])c2ccc3ccccc3c21 [ICG, indocyanine green]
- fluorescence in the cecum [1]: weak
- fluorescence throughout the small intestine [1]: strong but non-uniform
- source of fluorescent signal in dissected small intestine (GI tract removed 1 hr post injection, contents removed): does not arise from the intestinal tissues, but rather from its contents
- earliest detection of fluorescent signal in the cecum (after intradermal injection, also observed at 24 hr post injection): 1 h
- time fluorescent vessels could be visualized (after intravenous administration): up to 2 min
- distribution of the ICG throughout the mouse (following intravenous injection): within seconds
- fluorescent signal in the liver (injected intravenously, 1 h post injection): greatly reduced
- fluorescence in the liver (and gallbladder) (intradermal administration, 1 h post injection): still high
- fluorescent signal arising from the stomach (post injection, all times): absent at all times
